Data published in US11161839B2, “2-quinolone derived inhibitors of BCL6” (Cancer Research Technology Limited, priority 2017, dated 2021).
Where two headings read alike, the source gives them in different places.

Molecular target: human BCL6 BTB domain (Trx-6xHis-BCL6) (Homo sapiens (Human), UniProt P41182)
Assay: HTRF in vitro assay (BCL6 BTB domain / BCOR-AF633 peptide)
Type: binding
Conditions: for IC50: read-out: HTRF pIC50 (converted)
[1] = further generated data (Table 1b), 1 nM Trx-6xHis-BCL6, 0.5 nM anti-6xHis-Terbium cryptate
[2] = initially generated data (Table 1a), 10 nM Trx-6xHis-BCL6, 1 nM anti-6xHis-Terbium cryptate

Description: The % inhibition at each concentration was calculated by normalising FRET ratio to the appropriate high (DMSO with all reagents) and low (DMSO without BCL6) controls.

SMILES | HTRF pIC50 [1] | HTRF pIC50 [2] | also measured
CC(Nc1cc(=O)n(C)c2ncc(Nc3ccnc(Cl)c3Cl)cc12)c1ncccn1 (centres unmarked) [Example 6e, 6-((2,3-dichloropyridin-4-yl)amino)-1-methyl-4-((1-(pyrimidin-2-yl)ethyl)amino)-1,8-naphthyridin-2(1H)-one] | 6.28 |  | 
CC(Nc1cc(=O)n(C)c2ccc(Nc3nc(N4CCc5nn(C)cc5C4)ncc3Cl)cc12)c1ncccn1 (centres unmarked) [Example 17k, 6-((5-chloro-2-(2-methyl-2,4,6,7-tetrahydro-5H-pyrazolo[4,3-c]pyridin-5-yl)pyrimidin-4-yl)amino)-1-methyl-4-((1-(pyrimidin-2-yl)ethyl)amino)quinolin-2(1H)-one] | 6.11 |  | 
Cc1n[nH]c(C(C)Nc2cc(=O)n(C)c3ccc(Nc4ccnc(Cl)c4C#N)cc23)n1 (centres unmarked) [Example 3c, 2-Chloro-4-((1-methyl-4-((1-(3-methyl-1H-1,2,4-triazol-5-yl)ethyl)amino)-2-oxo-1,2-dihydroquinolin-6-yl)amino)nicotinonitrile] | 6.50 | 6.65 | 
CCC(C)(C)Nc1cc(=O)n(C)c2ccc(Nc3cc(C(=O)O)nc(Cl)c3C#N)cc12 [Example 9o, 6-chloro-5-cyano-4-((1-methyl-2-oxo-4-(tert-pentylamino)-1,2-dihydroquinolin-6-yl)amino)picolinic acid] | 6.66 |  | 
CC(Nc1cc(=O)n(Cc2ccccc2)c2ccc(Nc3cc(C(=O)O)nc(Cl)c3C#N)cc12)c1ncccn1 (centres unmarked) [Example 9q, 4-((1-benzyl-2-oxo-4-((1-(pyrimidin-2-yl)ethyl)amino)-1,2-dihydroquinolin-6-yl)amino)-6-chloro-5-cyanopicolinic acid] | 6.81 |  | 
CC(Nc1cc(=O)n(C)c2ccc(Nc3ncnc(Cl)c3Cl)cc12)c1ncccn1 (centres unmarked) [Example 19e, 6-((5,6-dichloropyrimidin-4-yl)amino)-1-methyl-4-((1-(pyrimidin-2-yl)ethyl)amino)quinolin-2(1H)-one] | 6.05 |  | 
Cn1c(=O)cc(NC2(C)CCCC2)c2cc(Nc3cc(C(=O)O)nc(Cl)c3C#N)ccc21 [Example 2d, 6-chloro-5-cyano-4-[[1-methyl-4-[(1-methylcyclopentyl)amino]-2-oxo-6-quinolyl]amino]pyridine-2-carboxylic acid] | 6.65 | 6.51 | 
CC(Nc1cc(=O)n(C)c2ccc(Nc3ccnc(Cl)c3C#N)cc12)c1nccs1 (centres unmarked) [Example 1s, 2-chloro-4-[[1-methyl-2-oxo-4-(1-thiazol-2-ylethylamino)-6-quinolyl]amino]pyridine-3-carbonitrile] | 6.07 | 6.03 | 
CC(Nc1cc(=O)n(CC2CCCCC2)c2ccc(Nc3ccnc(Cl)c3C#N)cc12)c1ncccn1 (centres unmarked) [Example 10v, 2-chloro-4-((1-(cyclohexylmethyl)-2-oxo-4-((1-(pyrimidin-2-yl)ethyl)amino)-1,2-dihydroquinolin-6-yl)amino)nicotinonitrile] | 6.17 |  | 
CC(Nc1cc(=O)n(C)c2ccc(Nc3cc(C(=O)O)nc(Cl)c3C#N)cc12)C1CC1 (centres unmarked) [Example 2a, 6-Chloro-5-cyano-4-[[4-(1-cyclopropylethylamino)-1-methyl-2-oxo-6-quinolyl]amino]pyridine-2-carboxylic acid] | 6.85 | 6.78 | 
CC(Nc1cc(=O)n(C)c2ccc(Nc3cc(C(=O)O)nc(Cl)c3C#N)cc12)c1ncc(C2CC2)cn1 (centres unmarked) [Example 9p, 6-chloro-5-cyano-4-((4-((1-(5-cyclopropylpyrimidin-2-yl)ethyl)amino)-1-methyl-2-oxo-1,2-dihydroquinolin-6-yl)amino)picolinic acid] | 7.25 |  | 
CCNC(=O)C(C)Nc1cc(=O)n(C)c2ccc(Nc3ccnc(Cl)c3C#N)cc12 (racemic) [Example 3k, rac-2-((6-((2-Chloro-3-cyanopyridin-4-yl)amino)-1-methyl-2-oxo-1,2-dihydroquinolin-4-yl)amino)-N-ethylpropanamide] |  |  | IC50 [2]: 676 nM
CC(Nc1cc(=O)n(C)c2ccc(Nc3ncnc(Cl)c3C#N)cc12)c1ncccn1 (centres unmarked) [Example 10t, 4-chloro-6-((1-methyl-2-oxo-4-((1-(pyrimidin-2-yl)ethyl)amino)-1,2-dihydroquinolin-6-yl)amino)pyrimidine-5-carbonitrile] | 6.22 |  | 
C[C@@H](Nc1cc(=O)n(C)c2ncc(Nc3ccnc(Cl)c3Cl)cc12)C1CC1 [Example 6f, (R)-4-((1-cyclopropylethyl)amino)-6-((2,3-dichloropyridin-4-yl)amino)-1-methyl-1,8-naphthyridin-2(1H)-one] | 6.21 |  | 
CCNC(=O)C(C)(C)Nc1cc(=O)n(C)c2ccc(Nc3ccnc(Cl)c3C#N)cc12 [Example 3h, 2-((6-((2-Chloro-3-cyanopyridin-4-yl)amino)-1-methyl-2-oxo-1,2-dihydroquinolin-4-yl)amino)-N-ethyl-2-methylpropanamide] | 6.41 | 6.40 | 
COCC(C)(C)Nc1cc(=O)n(C)c2ccc(Nc3cc(C(=O)O)nc(Cl)c3C#N)cc12 [Example 9m, 6-chloro-5-cyano-4-((4-((1-methoxy-2-methylpropan-2-yl)amino)-1-methyl-2-oxo-1,2-dihydroquinolin-6-yl)amino)picolinic acid] | 7.01 |  | 
CNC(=O)c1cc(Nc2ccc3c(c2)c(NC2(C#N)CC2)cc(=O)n3C)c(C#N)c(Cl)n1 [Example 24a, 6-chloro-5-cyano-4-((4-((1-cyanocyclopropyl)amino)-1-methyl-2-oxo-1,2-dihydroquinolin-6-yl)amino)-N-methylpicolinamide] | 6.84 |  | 
CC(Nc1cc(=O)n(C)c2ncc(Nc3nc(N4CCC(F)(F)CC4)ncc3Cl)cc12)c1ncccn1 (centres unmarked) [Example 17b, 6-((5-chloro-2-(4,4-difluoropiperidin-1-yl)pyrimidin-4-yl)amino)-1-methyl-4-((1-(pyrimidin-2-yl)ethyl)amino)-4,/- naphthyridin-2(1H)-one] | 6.11 |  | 
CCNc1cc(=O)n(C)c2ccc(Nc3cc(C(=O)O)nc(Cl)c3C#N)cc12 [Example 4, 6-Chloro-5-cyano-4-[[4-(ethylamino)-1-methyl-2-oxo-6-quinolyl]amino]pyridine-2-carboxylic acid] | 6.07 | 6.06 | 
Cn1cc(CNC(=O)C(C)(C)Nc2cc(=O)n(C)c3ccc(Nc4ccnc(Cl)c4C#N)cc23)cn1 [Example 11c, 2-((6--((2-chloro-3-cyanopyridin-4-yl)amino)-1-methyl-2-oxo-1,2-dihydroquinolin-4-yl)amino)-2-methyl-N-((1-methyl-1H-pyrazol-4-yl)methyl)propanamide] | 6.42 |  | 
CC(CCO)Nc1nc(=O)n(C)c2ccc(Nc3ccnc(Cl)c3C#N)cc12 (centres unmarked) [Example 1k, 2-chloro-4-[[4-[(3-hydroxy-1-methyl-propyl)amino]-1-methyl-2-oxo-quinazolin-6-yl]amino]pyridine-3-carbonitrile] | 5.95 | 6.19 | 
CCNc1cc(=O)n(CCN2C(=O)CCC2=O)c2ccc(Nc3ccnc(Cl)c3C#N)cc12 [Example 1r, 2-chloro-4-[[1-[2-(2,5-dioxopyrrolidin-1-yl)ethyl]-4-(ethylamino)-2-oxo-6-quinolyl]amino]pyridine-3-carbonitrile] | 6.25 | 6.05 | 
C[C@@H]1CN(c2ncc(Cl)c(Nc3ccc4c(c3)c(N[C@H](C)C3CC3)cc(=O)n4C)n2)C[C@H](C)O1 [Example 17d, 6-((5-chloro-2-((2S,6R)-2,6-dimethylmorpholino)pyrimidin-4-yl)amino)-4-(((R)-1-cyclopropylethyl)amino)-1-methylquinolin-2(1H)-one:formic acid (1:1)] | 6.19 |  | 
COC1CCC1Nc1cc(=O)n(C)c2ccc(Nc3ccnc(Cl)c3C#N)cc12 (racemic) [Example 22b, rac-2-chloro-4-((4-(((1R,2S)-2-methoxycyclobutyl)amino)-1-methyl-2-oxo-1,2-dihydroquinolin-6-yl)amino)nicotinonitrile or rac-2-chloro-4-((4-(((1R,2R)-2-methoxycyclobutyl)amino)-1-methyl-2-oxo-1,2-dihydroquinolin-6-yl)amino)nicotinonitrile] |  |  | IC50 [1]: 575 nM
Cn1c(=O)cc(NC2CC2)c2cc(Nc3cc(C(=O)O)nc(Cl)c3C#N)ccc21 [Example 2b, 6-chloro-5-cyano-4-[[4-(cyclopropylamino)-1-methyl-2-oxo-6-quinolyl]amino]pyridine-2-carboxylic acid] | 6.55 | 6.41 | 
CC(Nc1cc(=O)n(C)c2ccc(Nc3ccnc(Cl)c3C#N)cc12)c1nc[nH]n1 (centres unmarked) [Example 1e, 2-chloro-4-[[1-methyl-2-oxo-4-[1-(1H-1,2,4-triazol-3-yl)ethylamino]-6-quinolyl]amino]pyridine-3-carbonitrile] | 6.08 | 6.50 | 
CC(Nc1cc(=O)n(C)c2ccc(Nc3nc(N4CCC5(CCCN(C)C5=O)CC4)ncc3Cl)cc12)c1ncccn1 (centres unmarked) [Example 17g, 9-(5-chloro-4-((1-methyl-2-oxo-4((1-(pyrimidin-2-yl)ethyl)amino)-1,2-dihydroquinolin-6-yl)amino)pyrimidin-2-yl)-2-methyl-2,9-diazaspiro[5.5]undecan-1-one] | 6.24 |  | 
Cn1c(=O)cc(NC2(C#N)CC2)c2cc(Nc3cc(C(=O)O)nc(Cl)c3C#N)ccc21 [Example 9g, 6-chloro-5-cyano-4-((4-((1-cyanocyclopropyl)amino)-1-methyl-2-oxo-1,2-dihydroquinolin-6-yl)amino)picolinic acid] | 7.05 |  | 
